The target of one series is T1, TrkB (Mus musculus, UniProt P15209).
T1 construct: Brain lysates were prepared and analyzed by immunoblotting; from tissue; host or cells: mouse brain
Kind of series: TrkB activation in mouse brain after i.p. or oral administration. Type of series: in vivo. How it is done:
Unless specifically described, brain tissues are fixed in 4% paraformaldehyde overnight followed by paraffin embedding. Sections of 5 μm are cut. For immunohistochemical staining, brain sections are deparaffinized in xylene and rehydrated in graded alcohols. Endogenous peroxidase activity are blocked by 3% hydrogen peroxide for 5 minutes and all slides are boiled in 10 mM sodium citrate buffer (pH 6.0) for 10 minutes. Phosphorylated Trk A, Trk A, phosphorylated Trk B, and Trk B are detected using specific antibodies and, e.g., a Zymed HistostainPlus AEC kit (Invitrogen; Carlsbad, Calif.). Slides then are counterstained with hematoxylin.
To assess whether an identified active compound provokes TrkB activation in the brain, mice are intraperitoneally injected with a dose of 5 mg/kg and analyzed at various time points. […] Further, whether the protein and mRNA levels of the neurotrophic receptors is altered after treatment with an identified active compound is measured.
Both Akt and Erk1/2 were robustly activated by these molecules as well). […] The minimal required drug concentration was about 100-250 nM (see FIG. 7, right panels). […] To assess whether deoxygedunin provokes TrkB activation in the brain, mice (i.p.) were injected with a dose of 5 mg/kg for various time points. […] To establish that deoxygedunin is orally bioactive in provoking TrkB activation, two to three month old C57BL/6J mice were orally injected with various doses of 7,8-dihydroxyflavone or deoxygedunin then sacrificed 2 to 4 hours after administration. Brain lysates were prepared and analyzed by immunoblotting (see FIG. 10).

A further series deals with BDNF −/− pups. Kind of series: Vestibular ganglion loss in BDNF −/− pups. The class given is in vivo, mouse. As for the experimental part:
The cochleae of various drug-treated pups (P1 or P2 BDNF +/+ and −/− pups) were first fixed through cardioperfusion of 4% paraformaldehyde (in PBS). Each cochlea was dissected out and postfixed in 1% osmium for one hour at room temperature. Samples were decalcified in 0.35 M EDTA (pH 7.5, in PBS) for 72 hours at 4° C., followed by gradual dehydration in graded alcohols, infiltrated, and embedded in epoxy resin with the conventional protocols. Consecutive cochlear sections (5 μm in thickness) were cut with a microtome (Microm HM335E, GmbH) along the axis of the modiolus. Sections were stained with toluidine blue. Vestibular ganglions were identified by their location in the auditory internal meatus with the basal cochlear turn and the cochlear modiolus as morphological reference landmarks.
To examine whether deoxygedunin activating TrkB involved endogenous BDNF, BDNF conditional knockout mice with BDNF gene deletion limited to cortex (thus allowing normal development) were used. Deoxygedunin (5 mg/kg) was intraperitoneally injected into the BDNF cortex conditional knockout mice and the mice were sacrificed at 4 hours. […] Mutant mice lacking BDNF were known to have severe deficiencies in coordination and balance, which have been associated with excessive degeneration in several sensory ganglia including the vestibular ganglion (Ernfors et al., Nature 368, 147-150 (1994)). To determine whether deoxygedunin rescued this loss of vestibular ganglions in BDNF −/− pups, conventional BDNF +/− mice were bred with the same genotype mice. Deoxygedunin (5 mg/kg, i.p.) was administered to the pregnant mice at day E7.5 until birth.

Another series deals with mice. Kind of series: Forced swim test. The class given is in vivo, mouse. The settings on record: for immobility time: TrkB F616A knockin mice. As for the experimental part: To explore whether an identified active compound has an antidepressant effect like BDNF, a forced swim test is conducted. Adult male mice (2-3 months old) are randomly submitted, without a pre-swim, to a forced swim test of 6 minutes with immobility recorded in the last 4 minutes. The mice are injected intraperitoneally for 5 days with saline, imipramine (20 mg/kg), amitryptyline (15 mg/kg), or an identified active compound (5 mg/kg). The mice are allowed to adapt to the test room for 2 days, and the mice are placed in a clear glass cylinder with a diameter of 16 cm, half-filled with clear water at 24° C.
To investigate whether deoxygedunin mimicked BDNF in suppressing depression-like symptoms, a forced swim test after subchronic treatment of the mice for 5 days with various drugs was conducted. […] To assess whether the behavior responses by 7,8-DHF and deoxygedunin were mediated by TrkB receptor, TrkB F616A knockin mice were used. The transgenic mice were subjected to saline or 1NMPP1 treatment, respectively.

T1 sequence (P15209 32-821): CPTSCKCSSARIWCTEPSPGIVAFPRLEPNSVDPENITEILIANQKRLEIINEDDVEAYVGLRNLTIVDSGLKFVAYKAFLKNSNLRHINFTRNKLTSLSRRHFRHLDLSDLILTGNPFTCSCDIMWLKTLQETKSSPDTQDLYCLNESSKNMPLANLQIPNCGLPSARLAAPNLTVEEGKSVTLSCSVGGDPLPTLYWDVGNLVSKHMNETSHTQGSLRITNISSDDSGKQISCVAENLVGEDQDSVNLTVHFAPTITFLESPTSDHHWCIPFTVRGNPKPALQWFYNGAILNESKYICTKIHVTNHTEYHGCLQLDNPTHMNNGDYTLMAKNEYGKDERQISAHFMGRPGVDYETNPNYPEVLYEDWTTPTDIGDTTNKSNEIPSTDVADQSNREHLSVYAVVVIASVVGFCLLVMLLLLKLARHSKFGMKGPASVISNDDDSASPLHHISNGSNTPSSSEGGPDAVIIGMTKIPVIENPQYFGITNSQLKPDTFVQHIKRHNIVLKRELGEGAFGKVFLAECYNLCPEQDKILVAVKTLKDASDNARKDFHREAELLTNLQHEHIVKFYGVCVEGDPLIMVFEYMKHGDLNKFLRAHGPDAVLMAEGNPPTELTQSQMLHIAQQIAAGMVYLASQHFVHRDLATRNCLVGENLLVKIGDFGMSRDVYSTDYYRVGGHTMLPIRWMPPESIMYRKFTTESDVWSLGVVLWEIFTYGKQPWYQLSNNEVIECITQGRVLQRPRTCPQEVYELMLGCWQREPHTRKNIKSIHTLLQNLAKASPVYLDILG

Turning to `CC(=O)O[C@@H]1C[C@H]2C(C)(C)C(=O)C=C[C@]2(C)[C@H]2CC[C@]3(C)C(=CC(=O)O[C@H]3c3ccoc3)[C@@]21C` [deoxygedunin], on TrkB (mice, 5 mg/kg i.p.), the “time after injection at which TrkB was phosphorylated in the brain” value was 2 h and the “time of peak TrkB phosphorylation in the brain” value is 4 to 8 h. Besides, the blood-brain barrier penetration result on TrkB (mice, 5 mg/kg i.p., inferred from brain TrkB phosphorylation) is recorded as “penetrated the blood-brain barrier”. Besides, at TrkB (mouse hippocampus upon treatment), the “TrkB activation in hippocampus (immunohistochemistry staining)” value is on record as “robust TrkB activation in hippocampus”. The “vestibular ganglia in stained inner ear sections” value with BDNF −/− pups (BDNF mutant pups, 5 mg/kg i.p.) is given as “displayed intact vestibular ganglia”. Besides, in the series on BDNF −/− pups (BDNF −/− pups, 5 mg/kg i.p. to pregnant mice from E7.5 and to pups), the “vestibular ganglia detected (quantitative analysis)” value is recorded as 42.2±6.3%. Besides, the “survival of BDNF −/− pups under treatment” value with BDNF −/− pups (neonatal pups receiving 5 mg/kg deoxygedunin) is on record as “continued dying at P1 or P2”. Besides, the immobility time result with mice (TrkB blocked by 1NMPP1) is “did not have a significant effect”. Further, the immobility time entry with mice (saline group) was “substantially reduced the immobility time”. Besides, the swimming immobility result with mice (mice, subchronic treatment 5 days, imipramine 20 mg/kg, deoxygedunin 5 mg/kg) is “reduced the immobility”.

For the origin of these results see US8609870B2, “Treating various disorders using TrkB agonists” (Emory University, priority 2008, dated 2013).
